Test results: PubChem BioAssay (NCI)
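GI50: concentration for 50% inhibition of growth. TGI marks complete inhibition of growth.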

Tests used:
Assay in all cases: NCI anticancer screen, dose series, 384-well format
[1] = tested on: 786-0 renal
[2] = tested on: A498 renal
[3] = tested on: A549 NSCLC
[4] = tested on: ACHN renal
[5] = tested on: BT-549 breast
[6] = tested on: CAKI-1 renal
[7] = tested on: CCRF-CEM leukemia
[8] = tested on: COLO 205 colon
[9] = tested on: DU-145 prostate
[10] = tested on: EKVX NSCLC
[11] = tested on: HCC-2998 colon
[12] = tested on: HCT-15 colon
[13] = tested on: HL-60(TB) leukemia
[14] = tested on: HOP-62 NSCLC
[15] = tested on: HOP-92 NSCLC
[16] = tested on: HS 578T breast
[17] = tested on: HT29 colon
[18] = tested on: IGROV1 ovarian
[19] = tested on: K-562 leukemia
[20] = tested on: KM12 colon
[21] = tested on: LOX IMVI melanoma
[22] = tested on: M14 melanoma
[23] = tested on: MALME-3M melanoma
[24] = tested on: MCF7 breast
[25] = tested on: MDA-MB-231 breast
[26] = tested on: MDA-MB-435 melanoma
[27] = tested on: MDA-MB-468 breast
[28] = tested on: MOLT-4 leukemia

With `Cn1c(=O)n(-c2ccc(C(C)(C)C#N)cc2)c2c3cc(-c4cnc5ccccc5c4)ccc3ncc21` as the molecule, how does the GI50 [1] read?
The GI50 was less than 10 nM.

What about the TGI [1] of the same molecule?
Its TGI is 1190 nM.

What about the GI50 [2] of the same molecule?
Its GI50 is less than 10 nM.

And the TGI [2]?
Its TGI is 16.8 nM.

And the GI50 [3]?
The GI50 was less than 10 nM.

What about the TGI [3] of the same molecule?
Its TGI is 1330 nM.

And the GI50 [4]?
Its GI50 is less than 10 nM.

What about the TGI [4] of the same molecule?
The TGI was greater than 100000 nM.

And the GI50 [5]?
Its GI50 is less than 10 nM.

And the TGI [5]?
Its TGI is 62.8 nM.

And the GI50 [6]?
Its GI50 is 12.7 nM.

What about the TGI [6] of the same molecule?
Its TGI is greater than 100000 nM.

What about the GI50 [7] of the same molecule?
The GI50 was less than 10 nM.

And the TGI [7]?
Its TGI is 103 nM.

What about the GI50 [8] of the same molecule?
Its GI50 is 21.5 nM.

And the TGI [8]?
The TGI was 262 nM.

And the GI50 [9]?
Its GI50 is less than 10 nM.

And the TGI [9]?
Its TGI is greater than 100000 nM.

And the GI50 [10]?
Its GI50 is less than 10 nM.

And the TGI [10]?
The TGI was 85.1 nM.

And the GI50 [11]?
Its GI50 is less than 10 nM.

And the TGI [11]?
The TGI was 480 nM.

What about the GI50 [12] of the same molecule?
The GI50 was less than 10 nM.

What about the TGI [12] of the same molecule?
The TGI was greater than 100000 nM.

What about the GI50 [13] of the same molecule?
Its GI50 is 104 nM.

And the TGI [13]?
The TGI was 1110 nM.

And the GI50 [14]?
The GI50 was less than 10 nM.

What about the TGI [14] of the same molecule?
Its TGI is 191 nM.

What about the GI50 [15] of the same molecule?
Its GI50 is less than 10 nM.

And the TGI [15]?
Its TGI is 64.2 nM.

And the GI50 [16]?
The GI50 was less than 10 nM.

What about the TGI [16] of the same molecule?
The TGI was 19.8 nM.

And the GI50 [17]?
Its GI50 is 29.5 nM.

And the TGI [17]?
Its TGI is greater than 100000 nM.

What about the GI50 [18] of the same molecule?
Its GI50 is less than 10 nM.

And the TGI [18]?
Its TGI is 28.6 nM.

And the GI50 [19]?
The GI50 was 13.9 nM.

What about the TGI [19] of the same molecule?
The TGI was 12800 nM.

And the GI50 [20]?
The GI50 was 13.5 nM.

What about the TGI [20] of the same molecule?
The TGI was 1290 nM.

And the GI50 [21]?
The GI50 was less than 10 nM.

What about the TGI [21] of the same molecule?
The TGI was 69.8 nM.

And the GI50 [22]?
The GI50 was 13.6 nM.

What about the TGI [22] of the same molecule?
Its TGI is 599 nM.

And the GI50 [23]?
The GI50 was less than 10 nM.

What about the TGI [23] of the same molecule?
Its TGI is 23 nM.

What about the GI50 [24] of the same molecule?
Its GI50 is less than 10 nM.

And the TGI [24]?
The TGI was 185 nM.

And the GI50 [25]?
The GI50 was less than 10 nM.

What about the TGI [25] of the same molecule?
Its TGI is greater than 100000 nM.

And the GI50 [26]?
Its GI50 is 17.6 nM.

And the TGI [26]?
Its TGI is 492 nM.

What about the GI50 [27] of the same molecule?
Its GI50 is less than 10 nM.

What about the TGI [27] of the same molecule?
The TGI was 30.4 nM.

And the GI50 [28]?
Its GI50 is less than 10 nM.
